In the assay the target is ADAMTS4 (Homo sapiens (Human), UniProt O75173). Description: Selectivity assay for ADAMTS-7 modulators: ADAMTS4 (FRET substrate). It is filed as biochemical. To be noted: ADAMTS4 (R&D 4307-AD) 50 nM, substrate Dabcyl-EEVKAKVQPY-Glu(Edans)-NH2 1 μM, 120 min, 32° C. The method in brief:
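Activity read as rising fluorescence after a FRET substrate is cleaved by human ADAMTS4, with reactions started by substrate addition to wells holding compound or DMSO. Percent inhibition plotted against concentration gave IC50.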

pIC50: −log10 of the molar value.

ADAMTS4, sequence (O75173 213-685): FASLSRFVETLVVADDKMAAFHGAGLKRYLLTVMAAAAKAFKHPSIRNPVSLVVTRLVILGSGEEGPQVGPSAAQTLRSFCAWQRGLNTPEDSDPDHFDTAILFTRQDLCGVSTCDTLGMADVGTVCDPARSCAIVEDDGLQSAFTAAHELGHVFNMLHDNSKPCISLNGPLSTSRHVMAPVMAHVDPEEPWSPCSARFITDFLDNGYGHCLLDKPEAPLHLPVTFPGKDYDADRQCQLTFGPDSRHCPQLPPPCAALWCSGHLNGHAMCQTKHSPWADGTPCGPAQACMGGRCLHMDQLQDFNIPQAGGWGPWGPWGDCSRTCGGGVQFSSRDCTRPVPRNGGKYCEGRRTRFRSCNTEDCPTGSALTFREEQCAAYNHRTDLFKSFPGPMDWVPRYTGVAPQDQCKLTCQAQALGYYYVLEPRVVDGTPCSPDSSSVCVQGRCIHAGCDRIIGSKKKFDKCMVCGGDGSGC

A word on the pIC50: it is the negative decadic logarithm of the IC50, by convention in mol/L. `O=C1NC(=O)[C@](CNC(=O)c2cccc(F)c2-c2ccc(C(F)(F)F)cc2)(C2CC2)N1` [Example 235, N-{[(4R)-4-Cyclopropyl-2,5-Dioxoimidazolidin-4-Yl]Methyl}-6-Fluoro-4′-(Trifluoromethyl)[1,1′-Biphenyl]-2-Carboxamide] had a pIC50 of 5.11.

Regarding `Cc1cc(C2(CNC(=O)c3ccc(F)c(F)c3-c3ccc(C(F)(F)F)cc3)NC(=O)NC2=O)nn1C` (racemic) [Example 305, Rac-N-{[4-(1,5-Dimethyl-1H-Pyrazol-3-Yl)-2,5-Dioxoimidazolidin-4-Yl]Methyl}-5,6-Difluoro-4′-(Trifluoromethyl)[Biphenyl]-2-Carboxamide], the negative-log IC50 (pIC50) is 4.55.

`Cc1nscc1C1(CNC(=O)c2ccccc2-c2ccc(C(F)(F)F)nc2)NC(=O)NC1=O` (stereo not drawn) [Example 64, Ent-N-{[4-(3-Methyl-1,2-Thiazol-4-Yl)-2,5-Dioxoimidazolidin-4-Yl]Methyl}-2-[6-(Trifluoromethyl)Pyridin-3-Yl]Benzamide] had a pIC50 of 4.92.

Molecule `O=C1NC(=O)[C@](CNC(=O)c2c(Cl)cccc2-c2ccc(Cl)cc2)(C2CC2)N1` [Example 231, 3,4′-Dichloro-N-{[(4R)-4-Cyclopropyl-2,5-Dioxoimidazoidin-4-Yl]Methyl}[1,1′-Biphenyl]-2-Carboxamide] showed a pIC50 of 5.28.

For `O=C1NC(=O)C(CNC(=O)c2ccccc2-c2ccc(C(F)(F)F)cc2)(c2ccnn2CC(F)(F)F)N1` (racemic) [Example 6, Rac-N-({2,5-Dioxo-4-[1-(2,2,2-Trifluoroethyl)-1H-Pyrazol-5-Yl]Imidazolidin-4-Yl}Methyl)-4′-(Trifluoromethyl)[Biphenyl]-2-Carboxamide], the pIC50 was 5.21.

For `Cc1ccc(-c2ccccc2C(=O)NCC2(C(C)C)NC(=O)NC2=O)cc1` (stereo not drawn) [Example 205, Ent-N-[(4-Isopropyl-2,5-Dioxoimidazolidin-4-Yl)Methyl]-4′-Methyl[Biphenyl]-2-Carboxamide], the pIC50 is 4.92.

In turn, `O=C1NC(=O)[C@](CNC(=O)c2ccccc2-c2ccc(C(F)(F)F)cc2)(C2CC2)N1` [Example 114, N-{[(4R)-4-Cyclopropyl-2,5-Dioxoimidazolidin-4-Yl]Methyl}-4′-(Trifluoromethyl)[Biphenyl]-2-Carboxamide] showed a pIC50 of 4.99.

With `O=C1NC(=O)C(CNC(=O)c2ccccc2-c2ccc(C(F)(F)F)cc2)(c2ccnn2CC(F)(F)F)N1` (stereo not drawn) [Example 28, Ent-N-({2,5-Dioxo-4-[1-(2,2,2-Trifluoroethyl)-1H-Pyrazol-5-Yl]Imidazolidin-4-Yl}Methyl)-4′-(Trifluoromethyl)[Biphenyl]-2-Carboxamide], the pIC50 is 4.96.

`O=C1NC(=O)[C@](CNC(=O)c2ccc(OC(F)(F)F)cc2-c2ccc(C(F)(F)F)cc2)(C2CC2)N1` [Example 92, N-{[(4R)-4-Cyclopropyl-2,5-Dioxoimidazolidin-4-Yl]Methyl}-5-(Trifluoromethoxy)-4′-(Trifluoromethyl)[1,1′-Biphenyl]-2-Carboxamide] showed a negative-log IC50 (pIC50) of 4.72.

In turn, `CC(C)(C)c1ccc(-c2ccccc2C(=O)NC[C@@]2(C3CC3)NC(=O)NC2=O)cc1` [Example 113, 4′-Tert-Butyl-N-{[(4R)-4-Cyclopropyl-2,5-Dioxoimidazolidin-4-Yl]Methyl}[Biphenyl]-2-Carboxamide] had a pIC50 of 4.92.

`O=C1NC(=O)C(CNC(=O)c2ccccc2-c2ccc(C(F)(F)F)cc2)(c2ncsc2C2CC2)N1` (racemic) [Example 270, Rac-N-{[4-(5-Cyclopropyl-1,3-Thiazol-4-Yl)-2,5-Dioxoimidazolidin-4-Yl]Methyl}-4′-(Trifluoromethyl)[Biphenyl]-2-Carboxamide] showed a pIC50 of 5.16.

Molecule `Cc1ccc(-c2ncccc2C(=O)NC[C@@]2(C3CC3)NC(=O)NC2=O)cc1` [Example 132, N-{[(4R)-4-Cyclopropyl-2,5-Dioxoimidazolidin-4-Yl]Methyl}-2-(4-Methylphenyl)Nicotinamide] gave a pIC50 of 4.44.

In turn, `Cc1nn(C)cc1C1(CNC(=O)c2ccccc2-c2ccc(C(F)(F)F)cc2)NC(=O)NC1=O` (stereo not drawn) [Example 87, Ent-N-{[4-(1,3-Dimethyl-1H-Pyrazol-4-Yl)-2,5-Dioxoimidazolidin-4-Yl]Methyl}-4′-(Trifluoromethyl)[Biphenyl]-2-Carboxamide] showed a pIC50 of 5.16.

In turn, `O=C1NC(=O)[C@](CNC(=O)c2ccccc2-c2ccc(CC(F)(F)F)cc2)(C2CC2)N1` [Example 119, N-{[(4R)-4-Cyclopropyl-2,5-Dioxoimidazolidin-4-Yl]Methyl}-4′-(2,2,2-Trifluoroethyl)[Biphenyl]-2-Carboxamide] showed a negative logarithm of the IC50 (pIC50) of 5.04. This pIC50 and that of the molecule before are within 0.2 log units of each other.

Molecule `Cc1ccc(-c2cccc(Cl)c2C(=O)NC[C@@]2(C3CC3)NC(=O)NC2=O)cc1` [Example 222, 3-Chloro-N-{[(4R)-4-Cyclopropyl-2,5-Dioxoimidazolidin-4-Yl]Methyl}-4′-Methyl[1,1′-Biphenyl]-2-Carboxamide] showed a pIC50 of 5.52. This pIC50 is 0.48 log units higher than that of the molecule before.

For `Cc1ccc(C(=O)NCC2(c3ccnn3C)NC(=O)NC2=O)c(-c2ccc(C(F)(F)F)cc2)c1` (single isomer, unassigned; ent-5) [Example 308, Ent-5-Methyl-N-{[4-(1-Methyl-1H-Pyrazol-5-Yl)-2,5-Dioxoimidazolidin-4-Yl]Methyl}-4′-(Trifluoromethyl)[Biphenyl]-2-Carboxamide], the pIC50 was 5.38.

Consider `Cc1c(C2(CNC(=O)c3ccc(Cl)cc3-c3ccc(C(F)(F)F)cc3)NC(=O)NC2=O)cnn1C` (racemic) [Example 33, Rac-5-Chloro-N-{[4-(1,5-Dimethyl-1H-Pyrazol-4-Yl)-2,5-Dioxoimidazolidin-4-Yl]Methyl}-4′-(Trifluoromethyl)[Biphenyl]-2-Carboxamide], for which the pIC50 is 5.28.

For the molecule `O=C1NC(=O)[C@](CNC(=O)c2ccccc2-c2ccc(Cl)c(Cl)c2)(C2CC2)N1` [Example 227, 3′,4′-Dichloro-N-{[(4R)-4-Cyclopropyl-2,5-Dioxoimidazolidin-4-Yl]Methyl}[1,1′-Biphenyl]-2-Carboxamide], the negative-log IC50 (pIC50) is 4.39.

Consider `Cc1ccc(-c2ccccc2C(=O)NCC2(C3CCC3)NC(=O)NC2=O)cc1` (stereo not drawn) [Example 236, Ent-N-[(4-Cyclobutyl-2,5-Dioxoimidazolidin-4-Yl)Methyl]-4′-Methyl[Biphenyl]-2-Carboxamide], for which the pIC50 was 4.82.

`Cn1nccc1C1(CNC(=O)c2ccccc2-c2ccc(Cl)cc2)NC(=O)NC1=O` (racemic) [Example 181, Rac-4′-Chloro-N-{[4-(1-Methyl-1H-Pyrazol-5-Yl)-2,5-Dioxoimidazolidin-4-Yl]Methyl}[Biphenyl]-2-Carboxamide] showed a negative logarithm of the IC50 (pIC50) of 4.92.

`Cn1cncc1C1(CNC(=O)c2ccccc2-c2ccc(C(F)(F)F)cc2)NC(=O)NC1=O` (racemic) [Example 283, Rac-N-{[4-(1-Methyl-1H-Imidazol-5-Yl)-2,5-Dioxoimidazolidin-4-Yl]Methyl}-4′-(Trifluoromethyl)[Biphenyl]-2-Carboxamide] showed a negative-log IC50 (pIC50) of 5.20.

In the case of `Cc1sc(C(F)(F)F)nc1C1(CNC(=O)c2ccc(F)cc2-c2ccc(C(F)(F)F)cc2)NC(=O)NC1=O` (racemic) [Example 303, Rac-5-Fluoro-N-({4-[5-Methyl-2-(Trifluoromethyl)-1,3-Thiazol-4-Yl]-2,5-Dioxoimidazolidin-4-Yl}Methyl)-4′-(Trifluoromethyl)[Biphenyl]-2-Carboxamide], the negative logarithm of the IC50 (pIC50) is 4.42.

With `O=C1NC(=O)C(CNC(=O)c2cc(F)ccc2-c2ccc(C(F)(F)F)cc2)(c2ncsc2C(F)(F)F)N1` (racemic) [Example 265, Rac-N-({2,5-Dioxo-4-[5-(Trifluoromethyl)-1,3-Thiazol-4-Yl]Imidazolidin-4-Yl}Methyl)-4-Fluoro-4′-(Trifluoromethyl)[Biphenyl]-2-Carboxamide], the negative-log IC50 (pIC50) is 5.04.

Molecule `O=C1NC(=O)C(CNC(=O)c2ccccc2-c2ccc(C(F)(F)F)nc2)(c2ccnn2C2CC2)N1` (racemic) [Example 40, Rac-N-{[4-(1-Cyclopropyl-1H-Pyrazol-5-Yl)-2,5-Dioxoimidazolidin-4-Yl]Methyl}-2-[6-(Trifluoromethyl)Pyridin-3-Yl]Benzamide] gave a negative-log IC50 (pIC50) of 4.68.

Take `Cc1cccc(C(=O)NCC2(c3nccn3C)NC(=O)NC2=O)c1-c1ccc(C(F)(F)F)cc1` (single isomer, unassigned; ent-6) [Example 133, Ent-6-Methyl-N-{[4-(1-Methyl-1H-Imidazol-2-Yl)-2,5-Dioxoimidazolidin-4-Yl]Methyl}-4′-(Trifluoromethyl)[1,1′-Biphenyl]-2-Carboxamide]: the pIC50 was 5.80.

Take `O=C1NC(=O)C(CNC(=O)c2ccccc2-c2ccc(C(F)(F)F)cc2)(c2cscn2)N1` (stereo not drawn) [Example 197, Ent-N-{[2,5-Dioxo-4-(1,3-Thiazol-4-Yl)Imidazolidin-4-Yl]Methyl}-4′-(Trifluoromethyl)[Biphenyl]-2-Carboxamide]: the pIC50 was 4.89.

Consider `O=C1NC(=O)C(CNC(=O)c2ccccc2-c2ccc(C(F)(F)F)cc2)(C2CC(F)(F)C2)N1` (stereo not drawn) [Example 248, Ent-N-{[4-(3,3-Difluorocyclobutyl)-2,5-Dioxoimidazolidin-4-Yl]Methyl}-4′-(Trifluoromethyl)[Biphenyl]-2-Carboxamide], for which the pIC50 was less than 4.30.

`Cn1ccnc1C1(CNC(=O)c2cc(F)c(F)cc2-c2ccc(C(F)(F)F)cc2)NC(=O)NC1=O` (single isomer, unassigned; ent-4) [Example 154, Ent-4,5-Difluoro-N-{[4-(1-Methyl-1H-Imidazol-2-Yl)-2,5-Dioxoimidazolidin-4-Yl]Methyl}-4′-(Trifluoromethyl)[Biphenyl]-2-Carboxamide] had a negative-log IC50 (pIC50) of 5.40.

The molecule `Cc1ncn(C)c1C1(CNC(=O)c2ccc(F)cc2-c2ccc(C(F)(F)F)cc2)NC(=O)NC1=O` (racemic) [Example 286, Rac-N-{[4-(1,4-Dimethyl-1H-Imidazol-5-Yl)-2,5-Dioxoimidazolidin-4-Yl]Methyl}-5-Fluoro-4′-(Trifluoromethyl)[Biphenyl]-2-Carboxamide] gave a pIC50 of 5.01.

For the origin of these results see patent US12398120B2, “Substituted hydantoinamides as ADAMTS7 antagonists” (BAYER AKTIENGESELLSCHAFT, priority 2019, dated 2025).
